#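 Step 1: Grow cells in 96-well plates. Step 2: Expose to compound for 48 hours at 5 concentrations. Step 3: Interpolate endpoints linearly; if unreached, use highest concentration. The concentration for 50% growth inhibition is given as GI50. TGI: concentration producing complete growth inhibition.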
# Tests used:
# Assay in all cases: NCI tumour cell line growth inhibition, 48 h
# SK-OV-3 ovarian = test system: SK-OV-3 ovarian
# MALME-3M melanoma = test system: MALME-3M melanoma
# A498 renal = test system: A498 renal
# SK-MEL-2 melanoma = test system: SK-MEL-2 melanoma
# RXF 393 renal = test system: RXF 393 renal
# DU-145 prostate = test system: DU-145 prostate
# SF-539 CNS = test system: SF-539 CNS
# NCI-H522 lung = test system: NCI-H522 lung
# SNB-19 CNS = test system: SNB-19 CNS
# CAKI-1 renal = test system: CAKI-1 renal
# OVCAR-8 ovarian = test system: OVCAR-8 ovarian
# MCF7 breast = test system: MCF7 breast
# OVCAR-4 ovarian = test system: OVCAR-4 ovarian
# UACC-62 melanoma = test system: UACC-62 melanoma
# K-562 leukemia = test system: K-562 leukemia
# HCT-15 colon = test system: HCT-15 colon
# NCI/ADR-RES ovarian = test system: NCI/ADR-RES ovarian
# CCRF-CEM leukemia = test system: CCRF-CEM leukemia
# HT29 colon = test system: HT29 colon
# OVCAR-5 ovarian = test system: OVCAR-5 ovarian
# SK-MEL-5 melanoma = test system: SK-MEL-5 melanoma
# BT-549 breast = test system: BT-549 breast
# HCT-116 colon = test system: HCT-116 colon
# EKVX NSCLC = test system: EKVX NSCLC
# LOX IMVI melanoma = test system: LOX IMVI melanoma
# 786-0 renal = test system: 786-0 renal
# KM12 colon = test system: KM12 colon
# T-47D breast = test system: T-47D breast
# A549 NSCLC = test system: A549 NSCLC
# UO-31 renal = test system: UO-31 renal
# HOP-92 NSCLC = test system: HOP-92 NSCLC
# SF-295 CNS = test system: SF-295 CNS
# U251 CNS = test system: U251 CNS
# OVCAR-3 ovarian = test system: OVCAR-3 ovarian
# SW-620 colon = test system: SW-620 colon
# PC-3 prostate = test system: PC-3 prostate
# HOP-62 NSCLC = test system: HOP-62 NSCLC
# MOLT-4 leukemia = test system: MOLT-4 leukemia
# NCI-H226 lung = test system: NCI-H226 lung
# RPMI-8226 leukemia = test system: RPMI-8226 leukemia
# ACHN renal = test system: ACHN renal
# MDA-MB-231 breast = test system: MDA-MB-231 breast
# HS 578T breast = test system: HS 578T breast
# MDA-MB-435 = test system: MDA-MB-435
# SN12C renal = test system: SN12C renal
# NCI-H460 lung = test system: NCI-H460 lung
# UACC-257 melanoma = test system: UACC-257 melanoma
# TK-10 renal = test system: TK-10 renal
# COLO 205 colon = test system: COLO 205 colon
# NCI-H23 lung = test system: NCI-H23 lung
# SK-MEL-28 melanoma = test system: SK-MEL-28 melanoma
# SF-268 CNS = test system: SF-268 CNS
# IGROV1 ovarian = test system: IGROV1 ovarian
# HCC-2998 colon = test system: HCC-2998 colon
smiles,measurement,setting,value
O=C(CN(/C=C/C(=O)C(F)(F)F)c1ccccc1)c1ccc(Cl)cc1,GI50,SK-OV-3 ovarian,36.4 µM
same,TGI,SK-OV-3 ovarian,> 100 µM
same,GI50,MALME-3M melanoma,18.1 µM
same,TGI,MALME-3M melanoma,40.7 µM
same,GI50,A498 renal,20.4 µM
same,TGI,A498 renal,42.2 µM
same,GI50,SK-MEL-2 melanoma,19.2 µM
same,TGI,SK-MEL-2 melanoma,43.9 µM
same,GI50,RXF 393 renal,17.1 µM
same,TGI,RXF 393 renal,42.6 µM
same,GI50,DU-145 prostate,37.7 µM
same,TGI,DU-145 prostate,> 100 µM
same,GI50,SF-539 CNS,22.7 µM
same,TGI,SF-539 CNS,47 µM
same,GI50,NCI-H522 lung,14.5 µM
same,TGI,NCI-H522 lung,35.4 µM
same,GI50,SNB-19 CNS,22 µM
same,TGI,SNB-19 CNS,51.5 µM
same,GI50,CAKI-1 renal,17.8 µM
same,TGI,CAKI-1 renal,42.5 µM
same,GI50,OVCAR-8 ovarian,18.6 µM
same,TGI,OVCAR-8 ovarian,45.5 µM
same,GI50,MCF7 breast,24.5 µM
same,TGI,MCF7 breast,67.1 µM
same,GI50,OVCAR-4 ovarian,26.6 µM
same,TGI,OVCAR-4 ovarian,70.1 µM
same,GI50,UACC-62 melanoma,13.1 µM
same,TGI,UACC-62 melanoma,25.8 µM
same,GI50,K-562 leukemia,20.9 µM
same,TGI,K-562 leukemia,53.2 µM
same,GI50,HCT-15 colon,19.2 µM
same,TGI,HCT-15 colon,46 µM
same,GI50,NCI/ADR-RES ovarian,17.6 µM
same,TGI,NCI/ADR-RES ovarian,36 µM
same,GI50,CCRF-CEM leukemia,21 µM
same,TGI,CCRF-CEM leukemia,49.9 µM
same,GI50,HT29 colon,34.5 µM
same,TGI,HT29 colon,> 100 µM
same,GI50,OVCAR-5 ovarian,22.2 µM
same,TGI,OVCAR-5 ovarian,46.4 µM
same,GI50,SK-MEL-5 melanoma,16.4 µM
same,TGI,SK-MEL-5 melanoma,31.6 µM
same,GI50,BT-549 breast,31.2 µM
same,TGI,BT-549 breast,91.9 µM
same,GI50,HCT-116 colon,12 µM
same,TGI,HCT-116 colon,24.5 µM
same,GI50,EKVX NSCLC,40 µM
same,TGI,EKVX NSCLC,> 100 µM
same,GI50,LOX IMVI melanoma,16 µM
same,TGI,LOX IMVI melanoma,32.6 µM
same,GI50,786-0 renal,15.3 µM
same,TGI,786-0 renal,29.1 µM
same,GI50,KM12 colon,15.2 µM
same,TGI,KM12 colon,37.7 µM
same,GI50,T-47D breast,30 µM
same,TGI,T-47D breast,> 100 µM
same,GI50,A549 NSCLC,21.1 µM
same,TGI,A549 NSCLC,77.5 µM
same,GI50,UO-31 renal,19.9 µM
same,TGI,UO-31 renal,41.7 µM
same,GI50,HOP-92 NSCLC,19.1 µM
same,TGI,HOP-92 NSCLC,42.1 µM
same,GI50,SF-295 CNS,18.8 µM
same,TGI,SF-295 CNS,48.2 µM
same,GI50,U251 CNS,15.7 µM
same,TGI,U251 CNS,29.5 µM
same,GI50,OVCAR-3 ovarian,21.6 µM
same,TGI,OVCAR-3 ovarian,46.7 µM
same,GI50,SW-620 colon,22.1 µM
same,TGI,SW-620 colon,45.8 µM
same,GI50,PC-3 prostate,16.1 µM
same,TGI,PC-3 prostate,34.2 µM
same,GI50,HOP-62 NSCLC,17.2 µM
same,TGI,HOP-62 NSCLC,31.8 µM
same,GI50,MOLT-4 leukemia,19.9 µM
same,TGI,MOLT-4 leukemia,52.5 µM
same,GI50,NCI-H226 lung,18.1 µM
same,TGI,NCI-H226 lung,33.1 µM
same,GI50,RPMI-8226 leukemia,9.66 µM
same,TGI,RPMI-8226 leukemia,43.1 µM
same,GI50,ACHN renal,21.7 µM
same,TGI,ACHN renal,56.3 µM
same,GI50,MDA-MB-231 breast,16.5 µM
same,TGI,MDA-MB-231 breast,33.3 µM
same,GI50,HS 578T breast,28.2 µM
same,TGI,HS 578T breast,64.6 µM
same,GI50,MDA-MB-435,19.5 µM
same,TGI,MDA-MB-435,42.6 µM
same,GI50,SN12C renal,16 µM
same,TGI,SN12C renal,29.9 µM
same,GI50,NCI-H460 lung,16.1 µM
same,TGI,NCI-H460 lung,38.2 µM
same,GI50,UACC-257 melanoma,19.9 µM
same,TGI,UACC-257 melanoma,45.9 µM
same,GI50,TK-10 renal,28 µM
same,TGI,TK-10 renal,88.2 µM
same,GI50,COLO 205 colon,22.1 µM
same,TGI,COLO 205 colon,49.1 µM
same,GI50,NCI-H23 lung,17.1 µM
same,TGI,NCI-H23 lung,35.4 µM
same,GI50,SK-MEL-28 melanoma,20.7 µM
same,TGI,SK-MEL-28 melanoma,44.6 µM
same,GI50,SF-268 CNS,18.9 µM
same,TGI,SF-268 CNS,38.8 µM
same,GI50,IGROV1 ovarian,15.5 µM
same,TGI,IGROV1 ovarian,43.8 µM
same,GI50,HCC-2998 colon,14.7 µM
same,TGI,HCC-2998 colon,28.5 µM

# Reference: PubChem BioAssay (NCI)
